Legend:
[1] = tested on: passive cutaneous anaphylaxis (PCA); assay: Passive cutaneous anaphylaxis assay (PCA) in rats; format: in vivo, rat (Wister strain); conditions: Rattus norvegicus, po, 1 h, oral 10 mg/kg, one hour before antigen, read-out: PCA Inhibition Ratio %
Procedure: (§1) The effect of the compounds (I) of the present invention in the treatment of asthma and allergic diseases were evaluated by a passive cutaneous anaphylaxis assay (PCA) in rats and by measuring anti-SRS-A action using ileus of guinea pigs.
(i) Antiserum abundant in homocytotropic antibody is prepared by the same method as Tada and Okumura did (cf. Journal of Immunology, volume 106, page 1002, […]). Thus, one mg (calculated as an amount of protein) of DNP-As (2,4-dinitrophenyl-coupled ascaris extract) prepared by methods of Strejan and Campbell (Journal of Immunology, volume 98, page 893, 1971) and of Eisen (Journal of American Chemical Society, volume 85, page 4593, 1953) and […] pertussis vaccine are administered to each paw of Wister strain rats (180 to 200 grams body weights) by dividing the dose by four. Five days later, 0.5 mg of DNP-As is adminstered into muscle of back. Eight days later from the initial immunization, blood is taken from descending aorta under anesthetizing with ether, the resulting serum is stored at -80° C. and is melted before use.
(ii) Effect of tested compounds is investigated as follows:
Anti-serum obtained by the method (i) is diluted with physiological saline solution double by double successively and 0.05 ml of each diluted solution is administered into back of Wister strain rats (140 to 160 grams body weight) subcutaneously. After 72 hours, a solution of 2 mg (calculated as protein) of DNP-As and 2.5 mg of Evand Blue dissolved in 1 ml of physiological saline solution is administered intravenously at a dose of 5 ml/kg. After thirty minutes from antigen solution administration, the animals are killed and diameters of blue spots appeared at the place where antiserum is administered are measured. The PCA test is conducted by the same method as already described using a diluted solutions of antiserum which always show 10 mm or more of spot diameters and the effect of the test compounds is judged. Thus, antiserum diluted solutions are administered to two places in back. Test compounds are administered orally at the dose of 10 mg/kg one hour before administration of antigen solution. From the skin of reacted parts of killed animals, leaked or emitted dyestuff is extracted [cf. Baeck and Steinetz: J. Pharmacol. Exp. Ther., Vol. 131, page 400 (1961)] and the amount of the dyestuff is measured. The inhibition ratio is calculated by the following expression: [formula] in which R' is an amount of dyestuff in the group treated with the test compounds and A is that in the control group.

SRS-A = assay: Anti-SRS-A action (SRS-A induced shrinkage of guinea pig ileus); parameters: species or system guinea pig (Hartley strain male); conditions: treated five minutes before SRS-A (20 units), 5 min; for SRS-A Inhibition Ratio % 10^-6 M: 1 µM; for SRS-A Inhibition Ratio % 10^-7 M: 0.1 µM
Procedure: as §1
Anti-SRS-A action (An anti-action against slow reacting substance of anaphylaxie)
Hartley strain male guinea pigs (300 to 350 grams body weight) are killed and 1.0 to 1.5 cm of ileus is immediately excised from ileocecal parts and is suspended in 10 ml of Tyrode solution (95% O2 -5% CO2 saturation) containing 10^-7 g/ml of atropine and 10^-6 g/ml of pyrilamine. SRS-A (20 units) (the amount of SRS-A showing the same shrinkage as 5 ng of histamine is defined as one unit) prepared by using sensitized guinea pig lung is given to cause shrinkage there. Then antagonistic action of test compounds treated five minutes ago against the shrinkage is measured and recorded via isotonic transducer. [formula] in which A' is a height of shrinkage of SRS-A + test compound and A is that of SRS-A.

carrageenin edema = assay: Carrageenin edema in hind foot of rat (anti-inflammatory action); format: in vivo, rat (SD strain); parameters: concentration or dose not given beside the values; conditions: rats, oral one hour prior to carrageenin; foot volume three hours after
Procedure: Anti-inflammatory action was evaluated by measuring the effect of the compounds (I) in inhibiting carrageenin edema as illustrated below.
Carrageenin edema in hind foot of rat.
SD strain rats of about 150 grams body weight were used; each group consisted of five rats. Thus, 0.1 ml of 0.5% carrageenin solution in physiological saline water was hypodermically injected to the right hind foot of rat. The test compound was given orally to rats one hour prior to the above carrageenin treatment. Then the volume of the foot before and three hours after the carrageenin treatment was measured and the difference was compared with that of the control group.

male mice = assay: Acute toxicity, oral, observed for two weeks; format: in vivo; conditions: oral 4000 mg/kg, dead/total
Procedure: Acute toxicity is observed for two weeks by oral adminsitration of 4000 mg/kg of the test compounds to male mice. One group consists of four mice. Numbers of dead mice are shown in numerators.

allergic asthma = conditions: cited from earlier work
mast cells = conditions: believed; cited from earlier work

Row | Compound | inhibition in vivo at 10 mg/kg [1] [%] | SRS-A Inhibition Ratio % 10^-6 M (SRS-A) [%] | SRS-A Inhibition Ratio % 10^-7 M (SRS-A) [%] | % Inhibition (carrageenin edema) (carrageenin edema) [%] | Lethal Ratio (male mice) | duration of action (allergic asthma; in vivo) | pharmaceutical effect by oral administration (allergic asthma; oral) | effect in allergic asthma (allergic asthma; reported by Cox, et al.) | inhibition of emission of chemical mediators (mast cells)
1 | CCOc1ccccc1-c1oc2c(C(=O)OCCO)cccc2c(=O)c1C [Example 4, Beta-Hydroxyethyl 2'-ethoxy-3-methylflavone 8-carboxylate] | 20.5 | 67.2 | 42.4 | 33.9 | 0/4 |  |  |  | 
2 | Cc1c(-c2ccccc2OC(C)C)oc2c(C(=O)O)cccc2c1=O [Example 20, 2'-isopropoxy-3-methylflavone-8-carboxylic acid] | 20.7 | 38.5 | 20.4 | 32.5 |  |  |  |  | 
3 | CCN(CC)C(=O)c1cccc2c(=O)c(C)c(-c3ccccc3C)oc12 [Example 35, 2',3-dimethylflavone-8-carboxylic acid N,N-diethylamide] | 13.3 | 48.8 | 18.0 | 13.0 |  |  |  |  | 
4 | CCN(CC)C(=O)c1cccc2c(=O)c(C)c(-c3ccc(C(C)C)cc3)oc12 [Example 48, 4'-isopropyl-3-methylflavone-8-carboxylic acid N,N-diethylamide] | 27.2 | 100 | 23.3 | 23.2 | 0/4 |  |  |  | 
5 | Cc1c(-c2ccc(C(C)(C)C)cc2)oc2c(C(=O)O)cccc2c1=O [Example 55, 4'-tertiary butyl-3-methylflavone-8-carboxylic acid] | 20.3 | 100 | 21.1 | 19.1 |  |  |  |  | 
6 | CCCCCc1ccc(-c2oc3c(C(=O)O)cccc3c(=O)c2C)cc1 [Example 58, 3-methyl-4'-n-pentylflavone-8-carboxylic acid] | 28.8 | 40.0 | 10.3 | 31.9 | 0/4 |  |  |  | 
7 | O=C(O)c1cc(=O)c2c(OCC(O)COc3cccc4oc(C(=O)O)cc(=O)c34)cccc2o1 [sodium cromoglicate] |  |  |  |  |  | its action is of short duration | does not show any pharmaceutical effect by oral administration | effective for allergic asthma | inhibits emission of chemical mediators from mast cells

Reference: patent publication US4594345A, “Methylflavone-8-carboxylates” (Nippon Shinyaku Co. Ltd., priority 1982, dated 1986)
